These molecules were tested against Casein kinase I isoform epsilon (Homo sapiens, UniProt P49674) (assay: Kinase Assay: The kinase assay was performed in V-bottom 384-well plates. The final assay volume was 30 μl prepared from 15 μl additions of enzyme, substrates (fluoresceinated peptide FL-AHA-KRRRAL-PSER-VASLPGL-OH and ATP) and test compounds in assay buffer (20 mM HEPES pH 7.4, 30 mM MgCl2, 0.015% Brij35 and 4 mM DTT). The reaction was incubated at room temperature for 22 hours and terminated by adding 45 μl of 35 mM EDTA to each sample. The reaction mixture was analyzed on the Caliper LABCHIP®3000 (Caliper, Hopkinton, Mass.) by electrophoretic separation of the unphosphorylated substrate and phosphorylated product. […] The final concentration of reagents in the assay were 200 pM CK1ε or CK1δ, 50 μM ATP, 1.5 μM FL-AHA-KRRRAL-PSER-VASLPGL-OH, and 1.6% DMSO. Dose response curves were generated to determine the concentration required to inhibit 50% of the kinase activity (IC50). Compounds were dissolved at 10 mM in dimethylsulfoxide (DMSO) and evaluated at eleven concentrations. IC50 values were derived by non-linear regression analysis.).
Casein kinase I isoform epsilon, sequence (P49674 whole entry, canonical isoform): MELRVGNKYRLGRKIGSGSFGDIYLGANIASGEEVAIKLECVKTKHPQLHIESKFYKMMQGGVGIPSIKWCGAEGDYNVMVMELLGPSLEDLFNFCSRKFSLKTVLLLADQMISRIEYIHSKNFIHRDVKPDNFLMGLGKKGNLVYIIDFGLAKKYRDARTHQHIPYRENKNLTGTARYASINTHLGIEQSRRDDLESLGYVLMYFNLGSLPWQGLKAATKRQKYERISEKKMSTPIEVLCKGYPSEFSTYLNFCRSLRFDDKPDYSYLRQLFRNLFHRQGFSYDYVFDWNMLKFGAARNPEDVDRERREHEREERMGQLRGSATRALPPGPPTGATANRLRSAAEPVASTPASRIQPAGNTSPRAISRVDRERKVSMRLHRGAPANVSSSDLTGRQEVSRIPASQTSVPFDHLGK

Row | SMILES | IC50
1 | NC(=O)c1c(-c2ccc(F)c(Cl)c2)nn2c1CN(C(=O)Nc1cc(F)cc(C(F)(F)F)c1)CC2 | < 10 nM
2 | NC(=O)c1c(-c2cccc(F)c2)nn2c1CN(C(=O)NC1C3CC4CC(C3)CC1C4)CC2 (stereo not drawn) | < 10 nM
3 | NC(=O)c1c(-c2cc(F)cc(Cl)c2)nn2c1CN(C(=O)Nc1cc(F)cc(C(F)(F)F)c1)CC2 | < 10 nM
4 | Cc1nc(-c2ccc(NC(=O)N3CCn4nc(-c5ccc(F)c(Cl)c5)c(C(N)=O)c4C3)cc2)cs1 | < 10 nM
5 | NC(=O)c1c(-c2ccc(F)c(Cl)c2)nn2c1CN(C(=O)Nc1ccc(F)cc1)CC2 | < 10 nM
6 | NC(=O)c1c(-c2cccc(F)c2)nn2c1CN(C(=O)Nc1cc(Cl)cc(Cl)c1)CC2 | < 10 nM
7 | Cc1nc(-c2ccc(NC(=O)N3CCn4nc(-c5cccc(F)c5)c(C(N)=O)c4C3)cc2)cs1 | < 10 nM
8 | NC(=O)c1c(-c2ccc(Cl)c(F)c2)nn2c1CN(C(=O)Nc1ccc(Cl)c(Cl)c1)CC2 | < 10 nM
9 | NC(=O)c1c(-c2ccc(F)c(Cl)c2)nn2c1CN(C(=O)Nc1ccc3c(c1)S(=O)(=O)C=C3)CC2 | < 10 nM
10 | N#Cc1ccc(NC(=O)N2CCn3nc(-c4cnc(F)c(Cl)c4)c(C(N)=O)c3C2)cc1C(F)(F)F | < 10 nM
11 | Cc1ncc(-c2ccc(NC(=O)N3CCn4nc(-c5cccc(F)c5)c(C(N)=O)c4C3)cc2)o1 | < 10 nM
12 | COc1cccc(-c2nn3c(c2C(N)=O)CN(C(=O)Nc2ccc(C#N)cc2)CC3)c1 | < 10 nM
13 | N#Cc1ccc(NC(=O)N2CCn3nc(-c4cccc(Cl)c4)c(C(N)=O)c3C2)cc1N1CCOCC1 | < 10 nM

— ChEMBL document CHEMBL5725928, “Substituted 4,5,6,7-tetrahydropyrazolo[1,5-A]pyrazine derivatives as casein kinase 1 D/E inhibitors” (2017)
